According to US9708368B2, “Linear peptide antibiotics” (priority 2012, dated 2017):
≈ marks a conversion by molar mass, not a printed value. Square brackets hold non-standard residues; d marks the D form. Peptide text beside a SMILES is read from it. * marks the point of attachment. ξ: configuration not given here. Biphenylcarbonyl(4'-Bu) = CCCCc1ccc(-c2ccc(C(=O)*)cc2)cc1; X1 = C[C@H](N*)B1OC2C[C@@H]3C[C@@H](C3(C)C)[C@]2(C)O1; Thr(3ξ) = CC(O)[C@H](N)C(=O)O; Dab = NCC[C@H](N)C(=O)O; boroGly = OB(O)CN*; βAla = NCCC(=O)O

Experiments:
[1] = test system: Escherichia coli MC4100 IMP-4213 in which transcription of the SPase encoding gene is under control of a tetracycline inducible promoter; details: Method A; E. coli MC4100 IMP-4213 with decreased SPase expression; 35° C., 22 hours
Method: (§1) In vitro antimicrobial activity of each compound was determined by measuring minimal inhibitor concentrations (MICs) using the broth micro-dilution technique as approved by the Clinical and Laboratory Standards Institute (CLSI). […] Cells were inoculated onto Trypyticase Soy Agar or Luria Agar containing 16 ng/ml of anhydrotetracycline respectively and grown at 35° C. for 20 hours. Inocula suspensions were made by scraping cells into 1 mL of testing media (cation adjusted Mueller Hinton Broth supplemented with 0.002% v/v Tween-80) and diluting to a final OD600 nm of 0.01.
(§2) Test compounds were prepared in DMSO at a concentration of 10 mg/ml. […] Inocula suspensions were added to the two fold serial dilutions of test compounds to a final density of OD OD600 nm of 0.0005 and incubated stationary at 35° C. for 22 hours, after which the plates were examined visually.

[2] = test system: Methicillin Resistant Staphylococcus aureus strain USA 300 (NRS384); details: Method A; MRSA USA 300 (NRS384); 35° C., 22 hours
Method: as §1, §2

E. coli SPase = E. coli SPase (Escherichia coli, UniProt P00803); assay: Biochemical SPase activity assay (fluorogenic peptide substrate), E. coli enzyme
S. aureus SPase = S. aureus SPase (Staphylococcus aureus, UniProt P0A070); assay: biochemical
[3] = test system: Escherichia coli strain MC4100 IMP-4213, which harbors an LptD mutation; details: Method B; E. coli MC4100 IMP-4213 (LptD mutation); 35° C., 22 hours
Procedure, shortened: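 Two-fold serial dilutions of compound inoculated at final OD600 0.0005, incubated static at 35 °C for 22 h, and growth read visually.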

[4] = test system: methicillin resistant Staphylococcus aureus (MRSA) strain USA300 (NRS384); details: Method B, 35° C., 22 hours

Sequence of E. coli SPase (P00803 whole entry): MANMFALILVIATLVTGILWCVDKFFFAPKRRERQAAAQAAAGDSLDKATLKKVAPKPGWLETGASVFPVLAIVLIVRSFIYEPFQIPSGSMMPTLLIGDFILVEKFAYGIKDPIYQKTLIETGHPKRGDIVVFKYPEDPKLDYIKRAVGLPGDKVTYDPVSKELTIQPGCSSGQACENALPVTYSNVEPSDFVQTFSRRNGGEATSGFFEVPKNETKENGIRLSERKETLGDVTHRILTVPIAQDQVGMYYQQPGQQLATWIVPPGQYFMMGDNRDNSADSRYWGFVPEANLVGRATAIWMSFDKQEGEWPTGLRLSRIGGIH
Sequence of S. aureus SPase (P0A070 whole entry): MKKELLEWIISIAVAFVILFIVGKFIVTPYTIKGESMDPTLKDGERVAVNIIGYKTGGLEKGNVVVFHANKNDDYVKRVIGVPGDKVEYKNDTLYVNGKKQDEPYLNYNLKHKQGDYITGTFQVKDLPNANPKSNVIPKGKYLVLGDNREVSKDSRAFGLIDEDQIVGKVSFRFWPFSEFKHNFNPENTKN

SMILES: CCCCc1ccc(-c2ccc(C(=O)N[C@H](CO)C(=O)N[C@H](C)C(=O)N3CCC[C@H]3C(=O)N[C@H](C(=O)N[C@@H](C)C(=O)N[C@@H](CC(N)=O)C(=O)NCB(O)O)C(C)O)cc2)cc1 (stereo partly shown) [Compound 116] ({Biphenylcarbonyl(4'-Bu)}-[dS][dA]P[Thr(3ξ)]AN-boroGly)
- MIC (μg/mL) E. coli [1]: >64 µg/mL
- MIC (μg/mL) S. aureus [2]: >64 µg/mL
- IC50 (E. coli SPase): 310 nM
- IC50 (S. aureus SPase): 38 nM

SMILES: CCCCc1ccc(-c2ccc(C(=O)NCCC(=O)N[C@@H](CCCCN)C(=O)N[C@H](C(=O)N[C@@H](C)C(=O)N[C@@H](CC(N)=O)C(=O)N[C@@H](C)B3OC4C[C@@H]5C[C@@H](C5(C)C)[C@]4(C)O3)C(C)O)cc2)cc1 (stereo partly shown) [Compound 121] ({Biphenylcarbonyl(4'-Bu)-βAla}-K[Thr(3ξ)]AN-X1)
- MIC (μg/mL) E. coli [1]: 0.5 µg/mL (≈ 0.529 µM)
- MIC (μg/mL) S. aureus [2]: 0.25 µg/mL (≈ 0.265 µM)

SMILES: CCCCc1ccc(-c2ccc(CNCCC(=O)N[C@H](C(=O)N[C@@H](C)C(=O)N[C@@H](CCCCN)C(=O)N[C@@H](C)B3O[C@@H]4C[C@@H]5C[C@@H](C5(C)C)[C@]4(C)O3)[C@@H](C)O)cc2)cc1 [Compound 270]
- MIC (μg/mL) E. coli [3]: 8 µg/mL (≈ 9.79 µM)
- MIC (μg/mL) S. aureus [4]: 0.5 µg/mL (≈ 0.612 µM)
- IC50 (E. coli SPase): 650 nM
- IC50 (S. aureus SPase): 120 nM

SMILES: CCCCc1ccc(-c2ccc(CNCCCC(=O)N[C@H](C(=O)N[C@@H](C)C(=O)N[C@@H](CCCCN)C(=O)N[C@@H](C)B3O[C@@H]4C[C@@H]5C[C@@H](C5(C)C)[C@]4(C)O3)[C@@H](C)O)cc2)cc1 [Compound 271]
- MIC (μg/mL) E. coli [3]: 11 µg/mL (≈ 13.2 µM)
- MIC (μg/mL) S. aureus [4]: 0.5 µg/mL (≈ 0.602 µM)
- IC50 (E. coli SPase): 200 nM
- IC50 (S. aureus SPase): 16 nM

SMILES: CCCCc1ccc(-c2ccc(C(=O)N3CCC(C(=O)N[C@H](C(=O)N[C@@H](C)C(=O)N[C@@H](CCCCN)C(=O)N[C@@H](C)B4O[C@@H]5C[C@@H]6C[C@@H](C6(C)C)[C@]5(C)O4)[C@@H](C)O)CC3)cc2)cc1 [Compound 272]
- MIC (μg/mL) E. coli [3]: 32 µg/mL (≈ 36.7 µM)
- MIC (μg/mL) S. aureus [4]: 0.71 µg/mL (≈ 0.815 µM)
- IC50 (E. coli SPase): 1300 nM
- IC50 (S. aureus SPase): 50 nM

SMILES: CCCCc1ccc(-c2ccc(CN3CCC(C(=O)N[C@H](C(=O)N[C@@H](C)C(=O)N[C@@H](CCCCN)C(=O)N[C@@H](C)B4OC5C[C@@H]6C[C@@H](C6(C)C)[C@]5(C)O4)[C@@H](C)O)CC3)cc2)cc1 (stereo partly shown) [Compound 273]
- MIC (μg/mL) E. coli [3]: 8 µg/mL (≈ 9.34 µM)
- MIC (μg/mL) S. aureus [4]: 0.088 µg/mL (≈ 0.103 µM)
- IC50 (E. coli SPase): 470 nM
- IC50 (S. aureus SPase): 9.8 nM

SMILES: CCCCc1ccc(-c2ccc(CNCCC[C@H](N)C(=O)N[C@H](C(=O)N[C@@H](C)C(=O)N[C@@H](CCCCN)C(=O)N[C@@H](C)B3OC4C[C@@H]5C[C@@H](C5(C)C)[C@]4(C)O3)[C@@H](C)O)cc2)cc1 (stereo partly shown) [Compound 274]
- MIC (μg/mL) E. coli [3]: 16 µg/mL (≈ 18.6 µM)
- MIC (μg/mL) S. aureus [4]: 0.13 µg/mL (≈ 0.151 µM)
- IC50 (E. coli SPase): 1700 nM
- IC50 (S. aureus SPase): 35 nM

SMILES: CCCCc1ccc(-c2ccc(CNCCC[C@H](NC(C)=O)C(=O)N[C@H](C(=O)N[C@@H](C)C(=O)N[C@@H](CCCCN)C(=O)N[C@@H](C)B3OC4C[C@@H]5C[C@@H](C5(C)C)[C@]4(C)O3)[C@@H](C)O)cc2)cc1 (stereo partly shown) [Compound 275]
- MIC (μg/mL) E. coli [3]: 32 µg/mL (≈ 35.5 µM)
- MIC (μg/mL) S. aureus [4]: 1 µg/mL (≈ 1.11 µM)
- IC50 (E. coli SPase): 1500 nM
- IC50 (S. aureus SPase): 110 nM

SMILES: CCCCc1ccc(-c2ccc(CNCC[C@H](N)C(=O)N[C@H](C(=O)N[C@@H](C)C(=O)N[C@@H](CCCCN)C(=O)N[C@@H](C)B3OC4C[C@@H]5C[C@@H](C5(C)C)[C@]4(C)O3)[C@@H](C)O)cc2)cc1 (stereo partly shown) [Compound 276]
- MIC (μg/mL) E. coli [3]: 16 µg/mL (≈ 18.9 µM)
- MIC (μg/mL) S. aureus [4]: 0.5 µg/mL (≈ 0.591 µM)
- IC50 (E. coli SPase): 2000 nM
- IC50 (S. aureus SPase): 110 nM

SMILES: CCCCc1ccc(-c2ccc(CNCC[C@H](NC(C)=O)C(=O)N[C@H](C(=O)N[C@@H](C)C(=O)N[C@@H](CCCCN)C(=O)N[C@@H](C)B3OC4C[C@@H]5C[C@@H](C5(C)C)[C@]4(C)O3)[C@@H](C)O)cc2)cc1 (stereo partly shown) [Compound 277]
- MIC (μg/mL) E. coli [3]: 32 µg/mL (≈ 36 µM)
- MIC (μg/mL) S. aureus [4]: 0.5 µg/mL (≈ 0.563 µM)
- IC50 (E. coli SPase): 680 nM
- IC50 (S. aureus SPase): 110 nM

SMILES: CCCCc1ccc(-c2ccc(C(=O)NCCCC[C@H](NC(=O)[C@@H](N)CCN)C(=O)N[C@@H](C)C(=O)N[C@@H](CCCCN)C(=O)N[C@@H](C)B3OC4C[C@@H]5C[C@@H](C5(C)C)[C@]4(C)O3)cc2)cc1 (stereo partly shown) [Compound 278] (H-[Dab]K(Biphenylcarbonyl(4'-Bu))AK-X1)
- MIC (μg/mL) E. coli [3]: 16 µg/mL (≈ 18 µM)
- MIC (μg/mL) S. aureus [4]: 4 µg/mL (≈ 4.51 µM)
- IC50 (E. coli SPase): 800 nM
- IC50 (S. aureus SPase): 2300 nM

SMILES: CCCCc1ccc(-c2ccc(C(=O)NCCCC[C@H](NC(=O)[C@H](CCN)NC(C)=O)C(=O)N[C@@H](C)C(=O)N[C@@H](CCCCN)C(=O)N[C@@H](C)B3OC4C[C@@H]5C[C@@H](C5(C)C)[C@]4(C)O3)cc2)cc1 (stereo partly shown) [Compound 279] (Ac-[Dab]K(Biphenylcarbonyl(4'-Bu))AK-X1)
- MIC (μg/mL) E. coli [3]: 8 µg/mL (≈ 8.61 µM)
- MIC (μg/mL) S. aureus [4]: 11 µg/mL (≈ 11.8 µM)
- IC50 (E. coli SPase): 530 nM
- IC50 (S. aureus SPase): 7400 nM
